Measurements reported in patent US9023847B2, “Azaheterocyclic compounds” (Merck Patent GmbH, priority 2009, dated 2015).
pIC50: −log10 of the molar value.

Target: T1, P70S6K (T412E mutant, Millipore) (Homo sapiens, UniProt P23443, T412E)
T1 construct: purchased Millipore
Assay: p70S6K enzyme assay
Type: biochemical
Conditions: class symbol; 3 nM P70S6K, 24 μM ATP; read-out: IC50 (p70S6K)
Description: P70S6K inhibitor compounds are diluted and plated in 96 well plates. A reaction mixture including the following components is then added to the compound plate to initiate the enzyme reaction; P70S6K (3 nM, T412E mutant, Millipore) is mixed with 24 μM ATP in an assay buffer containing 100 mM Hepes (pH 7.5), 5 mM MgCl2, 1 mM DTT, 0.015% Brij and 1 μM of the substrate peptide FITC-AHA-AKRRRLSSLRA-OH (derived from the S6 ribosomal protein sequence, FITC=fluorescein isothiocyanate, AHA=6-aminohexanoic acid). The reaction is incubated for 90 min at 25° C., before the addition of 10 mM EDTA to stop the reaction. The proportion of substrate and product (phosphorylated) peptide is analysed on a Caliper Life Sciences Lab Chip 3000, using a pressure of −1.4 psi, and upstream and downstream voltages of −3000 and −700 respectively. Product peaks are resolved before substrate peaks on the resulting chromatograms.

T1 sequence (P23443 whole entry T412E): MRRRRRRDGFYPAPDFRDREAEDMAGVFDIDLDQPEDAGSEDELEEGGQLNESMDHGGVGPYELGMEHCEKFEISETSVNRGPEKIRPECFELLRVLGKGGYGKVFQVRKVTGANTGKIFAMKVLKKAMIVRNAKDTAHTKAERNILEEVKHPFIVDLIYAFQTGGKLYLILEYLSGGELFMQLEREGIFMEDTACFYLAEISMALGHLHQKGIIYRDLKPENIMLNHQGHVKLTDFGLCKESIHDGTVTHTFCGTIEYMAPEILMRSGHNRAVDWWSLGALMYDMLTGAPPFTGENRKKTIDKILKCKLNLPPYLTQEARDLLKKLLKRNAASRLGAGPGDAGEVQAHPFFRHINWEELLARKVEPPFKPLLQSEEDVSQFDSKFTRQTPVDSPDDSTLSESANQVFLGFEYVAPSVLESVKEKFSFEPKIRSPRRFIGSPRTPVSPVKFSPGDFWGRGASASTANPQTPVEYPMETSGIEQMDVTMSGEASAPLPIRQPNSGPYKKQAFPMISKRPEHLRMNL

pIC50 | Structure (SMILES)
> 7.00 | NS(=O)(=O)c1ccc(CCNC(=O)c2sccc2Nc2ccnc3[nH]ccc23)cc1 [Example 14, 3-(1H-Pyrrolo[2,3-b]pyridin-4-ylamino)-thiophene-2-carboxylic acid [2-(4-sulfamoyl-phenyl)-ethyl]-amide]
6.00 to 7.00 | O=C(NCCc1c[nH]cn1)c1sccc1Nc1ccnc2[nH]ccc12 [Example 15, 3-(1H-Pyrrolo[2,3-b]pyridin-4-ylamino)-thiophene-2-carboxylic acid [2-(1H-imidazol-4-yl)-ethyl]-amide]
6.00 to 7.00 | O=C(NCCN1CCOCC1)c1sccc1Nc1ccnc2[nH]ccc12 [Example 16, 3-(1H-Pyrrolo[2,3-b]pyridin-4-ylamino)-thiophene-2-carboxylic acid (2-morpholin-4-yl-ethyl)-amide]
6.00 to 7.00 | O=C(NCCc1ccncc1)c1sccc1Nc1ccnc2[nH]ccc12 [Example 17, 3-(1H-Pyrrolo[2,3-b]pyridin-4-ylamino)-thiophene-2-carboxylic acid (2-pyridin-4-yl-ethyl)-amide]
> 7.00 | O=C(NCCc1cccc(C(F)(F)F)c1)c1sccc1Nc1ccnc2[nH]ccc12 [Example 18, 3-(1H-Pyrrolo[2,3-b]pyridin-4-ylamino)-thiophene-2-carboxylic acid [2-(3-trifluoromethyl-phenyl)-ethyl]-amide]
6.00 to 7.00 | O=C(NCCc1ccccn1)c1sccc1Nc1ccnc2[nH]ccc12 [Example 19, 3-(1H-Pyrrolo[2,3-b]pyridin-4-ylamino)-thiophene-2-carboxylic acid (2-pyridin-2-yl-ethyl)-amide]
> 7.00 | O=C(NCCc1cccc(Cl)c1)c1sccc1Nc1ccnc2[nH]ccc12 [Example 20, 3-(1H-Pyrrolo[2,3-b]pyridin-4-ylamino)-thiophene-2-carboxylic acid [2-(3-chloro-phenyl)-ethyl]-amide]
> 7.00 | O=C(NCCc1cccs1)c1sccc1Nc1ccnc2[nH]ccc12 [Example 21, 3-(1H-Pyrrolo[2,3-b]pyridin-4-ylamino)-thiophene-2-carboxylic acid (2-thiophen-2-yl-ethyl)-amide]
> 7.00 | O=C(NCCc1cccc(F)c1)c1sccc1Nc1ccnc2[nH]ccc12 [Example 22, 3-(1H-Pyrrolo[2,3-b]pyridin-4-ylamino)-thiophene-2-carboxylic acid [2-(3-fluoro-phenyl)-ethyl]-amide]
> 7.00 | O=C(NCCc1ccc(F)cc1)c1sccc1Nc1ccnc2[nH]ccc12 [Example 23, 3-(1H-Pyrrolo[2,3-b]pyridin-4-ylamino)-thiophene-2-carboxylic acid [2-(4-fluoro-phenyl)-ethyl]-amide]
> 7.00 | O=C(NCCSCc1ccco1)c1sccc1Nc1ccnc2[nH]ccc12 [Example 24, 3-(1H-Pyrrolo[2,3-b]pyridin-4-ylamino)-thiophene-2-carboxylic acid [2-(furan-2-ylmethylsulfanyl)-ethyl]-amide]
> 7.00 | Cc1ccccc1CCNC(=O)c1sccc1Nc1ccnc2[nH]ccc12 [Example 25, 3-(1H-Pyrrolo[2,3-b]pyridin-4-ylamino)-thiophene-2-carboxylic acid (2-o-tolyl-ethyl)-amide]
> 7.00 | COc1cccc(CCNC(=O)c2sccc2Nc2ccnc3[nH]ccc23)c1 [Example 26, 3-(1H-Pyrrolo[2,3-b]pyridin-4-ylamino)-thiophene-2-carboxylic acid [2-(3-methoxy-phenyl)-ethyl]-amide]
> 7.00 | O=C(NCCc1ccc(Br)cc1)c1sccc1Nc1ccnc2[nH]ccc12 [Example 27, 3-(1H-Pyrrolo[2,3-b]pyridin-4-ylamino)-thiophene-2-carboxylic acid [2-(4-bromo-phenyl)-ethyl]-amide]
> 7.00 | COc1ccc(CCNC(=O)c2sccc2Nc2ccnc3[nH]ccc23)cc1 [Example 28, 3-(1H-Pyrrolo[2,3-b]pyridin-4-ylamino)-thiophene-2-carboxylic acid [2-(4-methoxy-phenyl)-ethyl]-amide]
